In patent publication US7833795B2, “Assessment of cardiovascular risk using isoprostane biomarkers and COX-2 selective inhibitors” (The Trustees of the University of Pennsylvania, priority 2004, dated 2010):

Key:
[1] = test system: Male Fisher 344 rats; assay: Urinary free plus esterified 8-iso-PGF2α by immunoassay; type: in vivo, rat
Protocol: (§1) Animals and treatment protocol: Male Fisher 344 rats (260-280 g) obtained from Charles River Laboratories (Raleigh, N.C.) were used in all experiments. The animals were housed three to a cage. Autoclaved hardwood bedding was used in solid-bottom polycarbonate cages with filter tops. Animal rooms were maintained at 20-25° C. with 35-70% relative humidity with alternating 12-hour light and dark cycles. The rats had free access to deionized, reverse-osmosis-treated water and received autoclaved NIH 31 rodent chow (Zeigler Bros., Gardners, Pa.) ad libitum. For all experiments, rats were fasted overnight and then administered intraperitoneal injections of carbon tetrachloride in canola oil. Control rats received an equal volume of canola oil. Fasting continued throughout the experiment. Rats were anesthetized with Nembutal (0.1 ml/100 g body weight) and 5 ml blood was removed from the dorsal aorta proximal to its bifurcation into the common iliac arteries.
(§2) Indomethacin pretreatment: The indomethacin regimen used has been previously shown to inhibit COX activity in rats by 90% (dose of 5 mg/kg s.c. 24 hours, 12 hours, and 2 hours prior to the injection of CCl4) (Jackson, 1989, J. Pharmacol. Exp. Ther. 250: 9-21). An additional booster dose was injected 8 hours after the last injection of CCl4 for the measurements performed 16 hours after treatment with CCl4.
(§3) Meclofenamic acid pretreatment: Meclofenamic acid was injected at a dose of 5 mg/kg i.p. 12 h and 2 h prior to the injection of CCl4.
(§4) Carbon tetrachloride (CCL4) treatment: Animals from each of the three dose groups (Control-canola oil, 120 mg/kg CCl4 i.p. and 1200 mg/kg CCl4 i.p.) were investigated at three time points (2, 7, and 16 hours after CCl4 injection). Indomethacin-pretreated rats were also investigated at the same three time points, and the meclofenamic acid-pretreated rats were investigated at one time point (7 hours). Each group consisted of five rats for each analysis, except the meclofenamic acid pretreatment group which consisted of six rats. Animal treatment, sample preparation, assessment of liver histology and serum enzyme activities are described elsewhere (Kadiiska et al., 2000, Free Radic. Biol. Med. 28: 838-845; Jackson, 1989, J. Pharmacol. Exp. Ther. 250: 9-21) and were carried out at NIEHS, Research Triangle Park, N.C.
(§5) Urine sample preparation: The day prior to treatment, both experimental and control animals were placed in stainless steel metabolic cages especially designed for urine collection. For Experimental Example 2, animals were placed in metabolic cages immediately after the last injection of indomethacin or meclofenamic acid. Urine was collected (in dark vials) from the animals during the following intervals: 2 to 7 hours and 7 to 16 hours after CCl4 or canola oil (controls) treatment. Urine samples from indomethacin-pretreated rats were collected from 2 to 7 hours and 7 to 16 hours after the injection of CCl4, whereas samples from meclofenamic-acid-pretreated rats were collected only from 2 to 7 hours after the injection. All urine samples were immediately frozen on dry ice and stored at −70° C.
Urinary 8-iso-PGF2α concentrations were measured by the competitive immunoassay procedure in which 8-iso-PGF2α conjugated to alkaline phosphatase competed with the test analyte for antibody specific for the isoprostane. The anti-8-iso-PGF2α antibody was captured by anti-Fc antibodies immobilized on a microtiter plate. The assay was developed by Assay Designs, Inc., Ann Arbor, Mich. and performed at OXIS Research, Portland, Oreg.
In an additional method not recited in Example 1, an immunoassay was used to measure the sum of free plus esterified 8-iso-PGF2α. The immunoassay used anti-8-iso-PGF2α antibody was developed by Assay Designs, Inc., Ann Arbor, Mich., and performed at Oxis Research, Portland, Oreg.

[2] = test system: Male Fisher 344 rats; assay: Urinary MDA by HPLC with spectrophotometry; type: in vivo, rat; conditions: for urinary MDA: meclofenamic acid pretreatment
Protocol: as §1, §2, §3, §4, §5
Urinary MDA was analyzed using high pressure liquid chromatography (HPLC). To 500 μl urine samples, 25 μl BHT and 750 μl 0.5% TBA solution were added, in this order. Samples were incubated at 60° C. for 60 minutes. After cooling, chloroform (750 μl) was added and mixed well. Following centrifugation, the aqueous layer was removed and used for HPLC analysis (column […]; mobile phase, 6:4(v/v) 0.04 M acetate buffer (pH 5.5)/MeOH; detection, 532 nm). The procedure was developed and performed by OXIS Research, Portland, Oreg.

[3] = test system: Male Fisher 344 rats; assay: Plasma MDA, TBA colorimetric assay with 3rd derivative spectroscopy; type: in vivo, rat; conditions: indomethacin pretreatment
Protocol: as §1, §4
(§6) Plasma sample preparation: Blood (5 ml) was drawn through single draw Vacutainer® needles (21 Gauge) into open Vacutainer® blood collection tubes containing heparin. The tubes were gently inverted 2-3 times for mixing and immediately placed on ice. Blood was centrifuged (2,000 rpm for 10 minutes at 4° C.) no more than 30 minutes after collection, and the plasma was collected, frozen on dry ice and stored at −70° C.
Two colorimetric-based assays, using third derivative spectroscopy, were also used to measure MDA in plasma. The TBA colorimetric assay is designed to measure free MDA and MDA-protein adducts (Schiff base), and therefore includes mild acid hydrolysis. The Bioxytech® LPO-586™ colorimetric assay is based upon the reaction of the chromogenic reagent N-methyl-2-phenylindole (NMPI) with MDA at 45° C. One molecule of free MDA combines with 2 molecules of the chromogenic agent to produce a stable chromophore with a maximal absorbance at 586 nm. In both assays, the concentration of MDA was determined with 3rd derivative spectroscopy. Both assays were developed by OXIS Research Inc., Portland, Oreg., and were performed at OXIS and at Loyola University Medical Center, Maywood, Ill.

[4] = test system: COX; conditions: 5 mg/kg s.c. 24, 12 and 2 hours prior to CCl4; cited from earlier work
[5] = test system: Male Fisher 344 rats; assay: Plasma MDA by GC/NICI-MS; type: in vivo, rat; conditions: indomethacin pretreatment; controls at 7 and 16 h, lower CCl4 dose at 2 and 16 h
Protocol: as §1, §2, §4, §6
Plasma MDA concentrations were also measured by using gas chromatography/negative ion chemical ionization mass spectroscopy (GC/NICI-MS) as described by Yeo et al. (Yeo et al., 1994, Anal. Biochem. 220: 391-396). The stable isotope internal standard [^2H2] MDA and an antioxidant (2,6-tert-butyl-4-methylphenol) were added to the plasma samples. The samples were then incubated at room temperature in 6.6 mol H2SO4 for 10 minutes to hydrolyze the aldehydes from the proteins. Plasma MDA was converted to a stable pentafluorophenyl hydrazine derivative which was quantified by using the GC-MS in the negative chemical ionization mode. The assay was performed at Children's Hospital Oakland Research Institute, Oakland, Calif.

[6] = test system: Male Fisher 344 rats; assay: Urinary 8,12-iso-iPF2α-VI by LC/MS/MS; type: in vivo, rat; conditions: for urinary 8,12-iso-iPF2α-VI, pretreated vs non-pretreated: indomethacin pretreatment
Protocol: as §1, §2, §3, §4, §5
Analysis of 8,12-iso-iPF2α-VI, which is, along with its epimer 5-epi-8,12-iso-iPF2α-VI, the most prevalent PGF-ring isoprostane in human urine, was accomplished by addition of a tetradeuterated analog, solid phase extraction and quantitation using liquid chromatography and tandem mass spectroscopy (LC/MS/MS) (Li et al., 1999, Proc. Natl. Acad. Sci. USA 96: 13381-13386). The measurements were performed at the University of Pennsylvania, Philadelphia, Pa.

[7] = test system: Male Fisher 344 rats; assay: Plasma free plus esterified 8-iso-PGF2α by GC/MS; type: in vivo, rat
Protocol: as §1, §2, §3, §4, §6
Measurement of the sum of free plus esterified 8-iso-PGF2α in plasma were performed using an improved GC/MS-based analysis for the quantitation of this isoprostane in plasma. A detailed protocol for this extraction and quantitation has been published (Parker et al., 2001, Mol. Biotechnol. 18: 105-118). Measurements of the sum of free plus esterified 8-iso-PGF2α in plasma were performed at NIEHS, Research Triangle Park, N.C.

[8] = test system: Male Fisher 344 rats; assay: Urinary free 8-iso-PGF2α by radioimmunoassay; type: in vivo, rat
Protocol: as §1, §3
as §4, with “N.C. […]” for “N.C.”
In Experimental Example 2, urine samples were also analyzed for free 8-iso-PGF2α, without any extraction, by radioimmunoassay (Basu, 1998, Prost. Leuk. Ess. Fatty Acids. 58: 319-325). […]

[9] = test system: Male Fisher 344 rats; assay: Plasma free 8-iso-PGF2α by GC/NICI-MS; type: in vivo, rat; conditions: meclofenamic acid 5 mg/kg i.p. pretreatment; only higher CCl4 dose, 7 h
Protocol: as §1, §2, §3, §4, §6
Two slightly different methods developed in two different laboratories were used to measure the effect of CCl4 on the plasma levels of free 8-iso-PGF2α, and the sum of free plus esterified 8-iso-PGF2α (also known as 8-epi-PGF2α and iPF2α-III and 15-F2t-IsoP). Free 8-iso-PGF2α concentrations in plasma were determined by gas chromatography/negative ion chemical ionization mass spectrometry (GC/NICI-MS) by the method of Morrow et al. (1999, Methods Enzymol. 300: 3-12). Briefly, [2H4] 8-iso-PGF2α internal standard was added to plasma and F2-isoprostanes were extracted with a C18 Sep-Pak® Cartridge (Waters Associates, Milford, Mass.). The extracted F2-isoprostanes were converted to pentafluorobenzyl ester and purified by TLC after which they were converted to a trimethylsilyl ether derivative and subsequently analyzed by GC-MS. The assay was developed and performed at Vanderbilt University, Nashville, Tenn.

[10] = meclofenamic acid pretreatment, 7 h

SMILES | urinary free plus esterified 8-iso-PGF2α (immunoassay), pretreated vs non-pretreated ([1]; indomethacin pretreatment, controls at 7 h, higher CCl4 dose at both time points) | urinary MDA, pretreated vs non-pretreated ([2]; indomethacin pretreatment, controls and low-dose CCl4, both time points) | plasma MDA (third derivative spectroscopy), pretreated vs non-pretreated [3] | inhibition of COX activity in rats [4] [%] | plasma MDA (GC/MS), pretreated vs non-pretreated rats [5] | urinary 8,12-iso-iPF2α-VI, pretreated vs non-pretreated ([6]; controls, earlier time point) | urinary 8,12-iso-iPF2α-VI, pretreated vs non-pretreated ([6]; higher dose CCl4) | urinary 8,12-iso-iPF2α-VI, pretreated vs non-pretreated ([6]; low dose CCl4) | plasma free plus esterified 8-iso-PGF2α, pretreated vs non-pretreated ([7]; indomethacin pretreatment, only higher CCl4 dose at 2 and 7 h) | urinary free plus esterified 8-iso-PGF2α (immunoassay), pretreated vs non-pretreated ([1]; meclofenamic acid pretreatment, high CCl4 dose, 7 h) | basal urinary free 8-iso-PGF2α (radioimmunoassay) vs control group ([8]; meclofenamic acid-treated rats, no CCl4) | urinary free 8-iso-PGF2α (radioimmunoassay) ([8]; meclofenamic pretreatment, both doses of CCl4, 7 h) | urinary MDA ([2]; higher dose of CCl4, 7 h) | urinary MDA ([2]; low dose of CCl4, 7 h) | CCl4-induced urinary 8,12-iso-iPF2α-VI [6, 10] | plasma free 8-iso-PGF2α, pretreated vs non-pretreated [9] | plasma free plus esterified 8-iso-PGF2α, effect compared with that on free 8-iso-PGF2α [7, 10]
COc1ccc2c(c1)c(CC(=O)O)c(C)n2C(=O)c1ccc(Cl)cc1 [indomethacin, 1-[p-chlorobenzoyl]-5-methoxy-2-methylindole-3-acetic acid] | Suppression | increase in MDA excretion | similarly decreased | 90 | statistically significant decrease | increased | markedly inhibited | no effect | statistically significant suppression |  |  |  |  |  |  |  | 
Cc1ccc(Cl)c(Nc2ccccc2C(=O)O)c1Cl [meclofenamic acid] |  |  |  |  |  |  |  |  |  | significant decrease | lower basal levels | increased | significant inhibition | increased | increased | significant decrease | similar
